This is an account of results in publication PMC10096054, “A New Application of Spin and Fluorescence Double-Sensor Molecules” (Molecules, 2023).

The structures appear in SMILES notation. Read-outs that look alike come from different tables or passages of the source.

The target of the assay is T1, human serum albumin (HSA) (Homo sapiens, UniProt P02768).
T1 construct: gene ALB; commercial human serum albumin purchased from Merck
Kind of assay: fluorescence polarization titration, nonlinear […] fit. The class given is binding. Background: Polarisation of emitted light reports the rotation of a fluorescent probe.

T1 sequence (P02768 25-609): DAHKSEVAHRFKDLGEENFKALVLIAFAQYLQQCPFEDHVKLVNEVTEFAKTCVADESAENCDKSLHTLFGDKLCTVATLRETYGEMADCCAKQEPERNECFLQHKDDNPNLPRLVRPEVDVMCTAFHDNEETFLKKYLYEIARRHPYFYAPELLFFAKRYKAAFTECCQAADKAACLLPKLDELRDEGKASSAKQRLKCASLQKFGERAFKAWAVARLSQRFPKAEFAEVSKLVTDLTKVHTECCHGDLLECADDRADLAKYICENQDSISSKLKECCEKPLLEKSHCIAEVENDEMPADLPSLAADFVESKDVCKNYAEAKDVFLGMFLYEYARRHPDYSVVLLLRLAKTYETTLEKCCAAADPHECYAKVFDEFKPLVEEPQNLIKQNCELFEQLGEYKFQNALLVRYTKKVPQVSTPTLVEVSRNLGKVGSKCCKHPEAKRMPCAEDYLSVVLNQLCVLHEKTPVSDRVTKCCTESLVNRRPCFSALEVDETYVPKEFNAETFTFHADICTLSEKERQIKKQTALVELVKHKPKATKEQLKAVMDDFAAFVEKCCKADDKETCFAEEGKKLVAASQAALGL

In turn, `CC1(C)C(CO)=C(c2ccc3ccc4cccc5ccc2c3c45)C(C)(C)N1[O]` [compound 1, 3-hydroxymethyl-1-oxyl-4-(pyren-1-yl)-2,2,5,5-tetramethyl-2,5-dihydro-1H-pyrrole radical] had a Kd of 1410 nM.
Regarding `CON1C(C)(C)C(CO)=C(c2ccc3ccc4cccc5ccc2c3c45)C1(C)C` [compound 6, (1-methoxy-2,2,5,5-tetramethyl-4-(pyren-1-yl)-2,5-dihydro-1H-pyrrol-3-yl)methanol], the Kd (read-out: logK (1-HSA, Absence of 2) (converted)) was 331 nM.
